Data published in patent US7261906B2, “Anti-cancer therapy agent of arsenic hexoxide (As4O6) of a natural chemical substance and its pharmaceutical composition” (priority 1998, dated 2007).

How the values were obtained:
3T3-fibroblast cells = assay: Cytotoxicity in 3T3-fibroblast cells, time course (XTT method); assay type: cell-based, murine
Description: (§1) Cloned tumor cells of P388 leukemia, L1210 leukemia, L5178Y lymphoma, Colon26-M3.1 carcinoma, and B16-BL6 melanoma, from mice, and K562 leukemia, liver carcinoma HEP-G2, Hs578T breast cancer, AN-3-CA adenocarcinoma, DLD colon carcinoma, and HeLa epitheloid carcinoma, from human beings, were cultured in EMM, DMEM, or RMPI-1640 culture media containing 7.5% fetal bovine serum (FBS), as described in ATCC manual. […] Tumor cells in test wells were incubated in 5% CO2 incubator at 37° C. for 2 days.
For further study of the cytotoxicity of each substance on cloned tumor cells, 3T3-fibroblast cells were cultured in test wells as described in experiment 1.

[1] = system: cloned tumor cells of mice and human beings; assay: Direct cytotoxicity of HD-2 relative to cisplatin over the clones; assay type: cell-based; conditions: 48 hours of incubation, mean over clones of Table 5
Description: as §1

[2] = system: colon26-M3.1 carcinoma cells; assay: Inhibitory effect of intravenously-administered HD-2 on cancer metastasis (lung); assay type: in vivo, mice
Description: B16-BL6 melanoma cells or colon26-M3.1 carcinoma cells were inoculated into mice and number of metastatic tumor masses appearing in lungs was counted. […] The peak activity was observed a: 1-mg dose with very high anticancer efficacy (86%). […] This indicated oral administration of HD-2 was quite effective for treatment of established cancer.
In this experiment, HD-2 was administered intravenously with dosage less than 500 mg/kg body weight per day.

[3] = system: N-nitrosodiethylamine (NDEA)-induced tumors in lung and liver; assay: Carcinogen-induced oncogenesis in liver and lung; assay type: in vivo, mouse (B6C3F1 strain); conditions: for incidence of NDEA-induced hepatic tumor (words): oral HD-2, FIG. 6
Description: To examine the inhibitory effect of HD-2 on carcinogen-induced oncogenesis, N-nitrosodiethylamine (NDEA) was injected as a carcinogen into peritoneal cavity of mouse (B6C3F1 strain) at a concentration of 90 mg per kg body weight to induce cancer. At 2, 4, 8, 16, and 32 weeks after carcinogen injection, […] of HD-2 was administered orally and the same amount of distilled water was injected into control group. Forty-two weeks after NDEA treatment, mice were sacrificed to measure the incidence and the size of tumors formed in lung and liver. […] The incidence of NDEA-induced hepatic tumor was above 90%, but following HD-2 administration, the incidence was lowered to 5 to 22%, despite of variation depending on the period of HD-2 administration. Thus HD-2 inhibited carcinogen-induced oncogenesis in liver by 78 to 95. […] In lung, the inhibitory effect of HD-2 on reducing carcinogen-induced oncogenesis was not so dramatic as in liver. However, if HD-2 was given at 4 weeks after NDEA injection, carcinogen-induced oncogenesis was inhibited by 30%.

[4] = 1 μg intravenous administration +1
[5] = 10 μg intravenous administration +1
[6] = 10 μg intravenous administration +7
[7] = 100 μg intravenous administration +1

## O1[As]2O[As]3O[As]1O[As](O2)O3 [HD-2, arsenic hexoxide (As4O6)]
3T3-fibroblast cells; 3T3, 34 hours of treatment
  morphological observation of cells: complete necrosis of tumor cells
3T3-fibroblast cells; 3T3, 48 hours after administration
  cytotoxicity, times as high as that of cisplatin: about 270 times
3T3-fibroblast cells; 3T3, time course after the addition, XTT
  cytotoxic effect over time (FIG. 3): demonstrated cytotoxic effect starting from 4 hours
[1]
  direct cytotoxicity, times as high as cisplatin: 50 times
[2]; [4]
  inhibitory rate: 66.5%
  number of metastatic mass, mean ± SD: 52 ± 28
[2]; [5]
  inhibitory rate: 92.9%
  number of metastatic mass, mean ± SD: 11 ± 19
[2]; [6]
  inhibitory rate: 67.5%
  number of metastatic mass, mean ± SD: 50 ± 11
[2]; [7]
  inhibitory rate: 90.3%
  number of metastatic mass, mean ± SD: 15 ± 15
[2]; 10- to 100-μg intravenous
  anti-metastatic efficacy: above 90%
[3]; FIG. 7
  incidence of NDEA-induced lung cancer: decreases the incidence of lung cancer
[3]; HD-2 given at 4 weeks after NDEA injection
  inhibition of carcinogen-induced oncogenesis in lung: 30%
[3]; HD-2 group, FIG. 7
  number of tumor masses in lung: about 2
[3]; oral HD-2
  spontaneous cancers of lung: completely suppressed
  spontaneous hepatoma: inhibited spontaneous hepatoma completely
[3]
  incidence of NDEA-induced hepatic tumor (words): effectively inhibited
[3]; listed as As4O6
  incidence of NDEA-induced hepatic tumor (words): decreases hepatoma incidence
